According to US20260286288A1, “REGULATED CELLS EXPRESSING CYTOKINES” (William Marsh Rice University, priority 2023, published 2026):
Entries after “also recorded” stand apart in the source; their conditions may differ.

Assays:
[1] = tested on: encapsulated IL2-ks cells; test: Viability of explanted IL2-ks capsules with or without intraperitoneal AP1903
RPE-mIL12-ks cells [2] = conditions: in vitro and in vivo assays of FIGS. 9A-C
Description: (§2) Images of RPE-mIL 12-ks cells via the microscope 24 hours after 0 nM (left) or 10 nM AP1903 (right) administration. […] Cell viability measured after lysing encapsulated RPE-IL12-ks via cell counter 24 hours post administration (n=3).
(§3) FIG. 9A is series of two annotated photographs of two populations of cytokine-producing, kill switch-inducible cells, the first population (left) not having been exposed to small molecule kill switch inducer AP1903, and the second population (right) 24 hours after exposure to 10 nM AP1903. FIG. 9B is the administration of different concentrations of CID (AP1903) in mIL 12 ks cells in a 24-well plate for 24 hours. […] FIG. 9C is the validation of AP1903 treatment in inducing encapsulated cell death in mice. The inventors implant 50 mIL12 ks capsules in each mouse and administrate half of the mice with AP1903 right after implantation surgeries. Euthanize all the mice after 24 hours, retrieve capsules and lysis capsules for measuring cell viability.

[3] = tested on: Encapsulated IL2-ks cells; test: mIL-2 ELISA of capsule supernatant of encapsulated IL2-ks cells after AP1903; format: cell-based; conditions: 10 nM, 100 nM or 1000 nM AP1903, alginate-encapsulated cells
Description: FIG. 3A and FIG. 3B are graphs of mIL-2 concentration (pg/mL) over time of four alginate-encapsulated, cytokine-producing, kill switch-inducible cell populations exposed to 0 nM, 10 nM, 100 nM, and 1000 nM of small molecule kill switch inducer AP1903.
(§1) Images were acquired at 20× magnification.

[4] = tested on: IL2-ks cells (cells expressing IL-2 and an inducible kill switch); test: Bright field imaging of IL2-ks cells after AP1903; format: cell-based; conditions: 100 nM AP1903, 18 hours after administration
From the text: as §1

[5] = tested on: IL2-ks cells (cells expressing IL-2 and an inducible kill switch); test: IL-2 ELISA of IL2-ks cell supernatant after AP1903; format: cell-based
Description: FIG. 2 is a graph of mIL-2 concentration (pg/mL) of the two cell populations of FIG. 1, the first population (right) not having been exposed to AP1903 and the second population (left) less than 24 hours after exposure to 100 nM AP1903.
FIG. 7A and FIG. 7B are graphs of IL-2 concentration (pg/mL) over time of four alginate-encapsulated, cytokine-producing, kill switch-inducible cell populations exposed to 0 nM, 10 nM, 100 nM, and 1000 nM of small molecule kill switch inducer AP1903.
as §1

RPE-mIL12-ks cells [6] = test: cells; conditions: 24 h, read-out: cell death
Description: as §2, §3

[7] = tested on: encapsulated IL12-ks cells; test: AP1903-induced encapsulated cell death of mIL12 ks capsules in mice; format: in vivo
From the text: FIG. 9A is an in vitro assay. […] FIG. 9B is an in vitro assay. […] FIG. 9C is an in vivo assay.

`CC[C@H](C(=O)N1CCCC[C@H]1C(=O)O[C@H](CCc1ccc(OC)c(OC)c1)c1cccc(OCC(=O)NCCNC(=O)COc2cccc([C@@H](CCc3ccc(OC)c(OC)c3)OC(=O)[C@@H]3CCCCN3C(=O)[C@@H](CC)c3cc(OC)c(OC)c(OC)c3)c2)c1)c1cc(OC)c(OC)c(OC)c1` [AP1903] was tested, and the “time for encapsulated IL2-ks cells to respond to AP1903” value ([1]; 0.4 mg/mL AP1903, healthy mice) was “less than 16 hours”, the viability at 400 µg/mL ([1]; Mus musculus, ip, read-out: viability of explanted capsules (live)) was under 10% and the “induction of cell death in RPE-mIL 12-ks cells” value (RPE-mIL12-ks cells [2]) was “highly effective at inducing cell death”. The “mIL-2 concentration over time from capsule supernatant” value [3] was “IL-2 production was reduced; also recorded: decreased mIL-2 production”, the “cell death (bright field images)” value [4] was “induced cell death” and the “IL-2 concentration from cell supernatant” value ([5]; 10 nM, 100 nM or 1000 nM AP1903, 3 hours after administration) was “significant reduction in cytokine production”. For the same compound, the “mIL-2 concentration from cell supernatant” value ([5]; 100 nM AP1903, 18 hours after administration, n=3 wells) was “significant reduction in cytokine production; also recorded: decreased mIL-2 production”, the cytotoxicity at 0.01 µM (RPE-mIL12-ks cells [6]) was 99% and the “time for encapsulated IL12-ks cells to respond to AP1903” value ([7]; 0.4 mg/mL AP1903, healthy mice, n=3) was “less than 24 hours”. For the same compound, the “cell viability of retrieved capsules” value ([7]; AP1903 right after implantation of 50 capsules, 24 hours, compared to control mice) was “decreased cell viability”.
